# Test results taken from patent US20260174724A1, “COMPOSITION FOR PREVENTING AND/OR IMPROVING BRAIN DYSFUNCTION” (THE INSTITUTE OF BIOACTIVE PEPTIDES, priority 2024, published 2026).
# Legend:
# [1] = tested on: intracerebral hemorrhage (ICH) model of C57BL/6N mice; assay: Cerebral hematoma experiment: collagenase-induced ICH model, hematoma volume by ImageJ; assay type: in vivo; details: Day 1 after modeling; gavage 7 days before collagenase; FIG. 3
# Excerpt: This experiment aims to evaluate the effect of different compositions on the hematoma volume in the intracerebral hemorrhage (ICH) model of C57BL/6N mice. A total of 72 male C57BL/6N mice, aged 8-10 weeks, were randomly divided into 6 groups and treated with gavage for 7 days. Subsequently, except for the sham operation group (CON), the remaining groups were induced the ICH model by collagenase method. […]
# On the 1st and 3rd day after modeling, 6 mice were randomly selected from each group for decapitation and brain sampling. The brain tissue was cut into slices on ice, and the hematoma volume was calculated using ImageJ software.
# [2] = Bioavailability experiment: DHM concentration in plasma after gavage, LC-MS/MS; assay type: in vivo; details: male SD rats, DHM 100 mg/kg
# Procedure: Experimental subject grouping: 24 male SD rats, weighing between 200-220 g, were randomly divided into four groups.
# • Group A (control group): DHM was administered alone at a dose of 100 mg/kg. • Group B: DHM (100 mg/kg) was co-administered with L-theanine (10 mg/kg). • Group C: DHM (100 mg/kg) was co-administered with taurine (10 mg/kg). • Group D: DHM (100 mg/kg), L-theanine (10 mg/kg), and taurine (10 mg/kg) were co-administered.
# The drug was mixed with 3 mL of 0.5% CMC-Na solution and administered by gavage.
# At 0.1, 0.5, 1, 1.5, 2, 2.5, 3, 4, 6, 8, and 12 h after administration, 200 μL of blood samples were collected through the tail vein and placed in heparinized EP tubes.
# The blood samples were centrifuged at 5000 rpm for 15 min at 4° C., and plasma was collected and stored at −20° C.
# Before analysis, 30 μL of plasma sample was taken, 30 μL of internal standard (rutin) solution and 140 μL of 1% formic acid-acetonitrile solution were added, vortex oscillated for 1 min, centrifuged at 12000 rpm for 5 min, and 150 μL of supernatant was taken for LC-MS/MS analysis. Analysis purpose:
# The concentration of DHM in plasma was determined at different time points to evaluate the effect of the composition on the bioavailability of DHM.
# [3] = simulated gi fluid, 4 h, 1 mg/mL
# Procedure: • Solutions A-D and A1-D1 were prepared according to the following components and concentrations, with a volume of 10 mL each. The mixed solution was placed in a water bath at 37° C., and the content of the remaining DHM was determined by HPLC at different time intervals. • Solution A: SIF+DHM (1 mg/mL); • Solution B: SIF+DHM (1 mg/mL)+taurine (0.3 mg/mL) • Solution C: SIF+DHM (1 mg/mL)+L-theanine (0.4 mg/mL); • Solution D: SIF+DHM (1 mg/mL)+taurine (0.1 mg/mL)+L-theanine (0.1 mg/mL) • Solution A1: SIF+DHM (1 mg/mL)+Fe^3+ (50 μmol/L); • Solution B1: SIF+DHM (1 mg/mL)+taurine (0.3 mg/mL)+Fe^3+ (50 μmol/L); • Solution C1: SIF+DHM (1 mg/mL)+L-theanine (0.4 mg/mL)+Fe^3+ (50 μmol/L); • Solution D1: SIF+DHM (1 mg/mL)+taurine (0.1 mg/mL)+L-theanine (0.1 mg/mL)+Fe^3+ (50 μmol/L).
smiles,measurement,setting,value
"O=C1c2c(O)cc(O)cc2O[C@H](c2cc(O)c(O)c(O)c2)[C@H]1O [G1 group, dihydromyricetin]",hematoma volume compared with the MOD group,[1],decreased
"O=C1c2c(O)cc(O)cc2O[C@H](c2cc(O)c(O)c(O)c2)[C@H]1O [DHM, dihydromyricetin]",CL,[2],517 ± 62.4 L/h/kg
same,AUC(0-inf),"[2]; rat, po",194 ng·h/mL
same,AUC(0-t),"[2]; rat, po",172 ng·h/mL
same,Cmax,"[2]; rat, po",118 ± 13.7 ng/mL
same,Tmax,"[2]; rat, po",0.83 ± 1.12 h
same,half-life,"[2]; rat, po",1.91 ± 0.67 h
same,remaining amount of DHM,[3],below 50%
